For 13 compounds, IC50 results are on record in US9802941B2, “Compounds and methods for inhibiting histone demethylases” (Gilead Sciences, Inc., priority 2014, dated 2017).

Like-named read-outs stand apart in the source and are kept apart here.

Type in all cases: biochemical
The target of one assay is T1, KDM4C (JMJD2C) (Homo sapiens, UniProt Q9H3R0).
T1 construct: KDM4C; BRIC, Denmark; 1-349; E. coli; host or cells: E. coli
T1 sequence (Q9H3R0 1-349): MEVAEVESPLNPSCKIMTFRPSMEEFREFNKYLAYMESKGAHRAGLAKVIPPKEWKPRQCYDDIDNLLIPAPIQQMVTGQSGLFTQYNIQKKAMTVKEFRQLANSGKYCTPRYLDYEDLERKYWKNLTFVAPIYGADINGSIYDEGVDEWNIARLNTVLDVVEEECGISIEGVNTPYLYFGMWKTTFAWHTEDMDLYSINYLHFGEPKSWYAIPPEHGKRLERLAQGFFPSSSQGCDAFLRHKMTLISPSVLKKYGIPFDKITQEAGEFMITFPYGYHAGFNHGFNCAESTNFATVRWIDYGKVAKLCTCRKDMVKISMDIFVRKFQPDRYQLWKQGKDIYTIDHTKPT
The assay is described as follows: Histone lysine demethylase AlphaLISA assay, KDM4C. The method, boiled down: (§1)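 Compounds preincubated 10 min with each demethylase in Hepes buffer (pH 7.4-8.0) containing Tween-20, 0.1% BSA and 5 μM Fe(II); substrate then added, room-temperature reaction. Read-out by AlphaLISA acceptor and streptavidin donor beads after incubation in the dark.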
(Bead proximity is the source of the signal in Alpha formats.)

A further assay concerns the target T2, KDM5B (PLU-1) (Homo sapiens, UniProt Q9UGL1).
T2 construct: BRIC; 1-809; E. coli; host or cells: E. coli
T2 sequence (Q9UGL1 1-809): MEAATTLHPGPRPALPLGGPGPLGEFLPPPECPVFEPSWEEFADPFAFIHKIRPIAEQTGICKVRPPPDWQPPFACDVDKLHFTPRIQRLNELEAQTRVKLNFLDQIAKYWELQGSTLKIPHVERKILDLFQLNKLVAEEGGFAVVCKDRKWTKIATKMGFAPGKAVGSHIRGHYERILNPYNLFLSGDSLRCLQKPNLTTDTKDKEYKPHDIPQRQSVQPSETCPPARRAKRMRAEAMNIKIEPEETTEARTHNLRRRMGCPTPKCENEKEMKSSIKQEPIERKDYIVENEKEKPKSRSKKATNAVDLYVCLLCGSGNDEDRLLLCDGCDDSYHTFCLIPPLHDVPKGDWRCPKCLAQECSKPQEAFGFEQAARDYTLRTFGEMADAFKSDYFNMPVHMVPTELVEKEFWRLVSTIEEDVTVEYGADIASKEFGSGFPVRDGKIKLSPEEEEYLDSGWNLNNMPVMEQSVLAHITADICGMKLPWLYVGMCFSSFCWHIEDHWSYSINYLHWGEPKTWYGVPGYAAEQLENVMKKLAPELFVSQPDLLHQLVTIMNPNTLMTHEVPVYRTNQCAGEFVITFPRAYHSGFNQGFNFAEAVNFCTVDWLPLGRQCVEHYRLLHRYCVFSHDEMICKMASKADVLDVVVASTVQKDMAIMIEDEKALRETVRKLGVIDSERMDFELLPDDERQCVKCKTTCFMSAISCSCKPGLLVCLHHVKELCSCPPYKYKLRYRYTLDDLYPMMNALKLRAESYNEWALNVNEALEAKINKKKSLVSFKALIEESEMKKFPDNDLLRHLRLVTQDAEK
Put plainly: Histone lysine demethylase AlphaLISA assay, KDM5B. The method, boiled down:
as §1

The next assay deals with T3, PHF8 (KDM7) (Homo sapiens, UniProt Q9UPP1).
T3 construct: KDM7 (PHF8); BRIC; 1-1322; Bac
T3 sequence (Q9UPP1 37-440 limits assumed): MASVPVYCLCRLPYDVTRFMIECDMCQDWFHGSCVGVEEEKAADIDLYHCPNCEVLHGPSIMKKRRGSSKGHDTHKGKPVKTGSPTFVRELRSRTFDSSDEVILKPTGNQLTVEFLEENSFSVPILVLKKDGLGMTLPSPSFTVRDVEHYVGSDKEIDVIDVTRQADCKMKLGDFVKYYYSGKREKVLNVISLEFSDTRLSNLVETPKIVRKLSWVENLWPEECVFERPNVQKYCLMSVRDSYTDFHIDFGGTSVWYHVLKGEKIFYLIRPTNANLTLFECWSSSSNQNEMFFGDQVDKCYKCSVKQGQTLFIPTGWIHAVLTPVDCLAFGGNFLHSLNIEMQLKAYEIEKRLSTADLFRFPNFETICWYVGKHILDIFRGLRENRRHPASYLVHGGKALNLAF
The assay is described as follows: Histone lysine demethylase AlphaLISA assay, PHF8. In short, it runs like this: as §1

The next assay addresses T4, KDM2B (FBXL10) (Homo sapiens, UniProt Q8NHM5).
T4 construct: KDM2B; BPS,; 1-650; Bac; purchased BPS Bioscience, US; host or cells: baculovirus system
T4 sequence (Q8NHM5 1-650): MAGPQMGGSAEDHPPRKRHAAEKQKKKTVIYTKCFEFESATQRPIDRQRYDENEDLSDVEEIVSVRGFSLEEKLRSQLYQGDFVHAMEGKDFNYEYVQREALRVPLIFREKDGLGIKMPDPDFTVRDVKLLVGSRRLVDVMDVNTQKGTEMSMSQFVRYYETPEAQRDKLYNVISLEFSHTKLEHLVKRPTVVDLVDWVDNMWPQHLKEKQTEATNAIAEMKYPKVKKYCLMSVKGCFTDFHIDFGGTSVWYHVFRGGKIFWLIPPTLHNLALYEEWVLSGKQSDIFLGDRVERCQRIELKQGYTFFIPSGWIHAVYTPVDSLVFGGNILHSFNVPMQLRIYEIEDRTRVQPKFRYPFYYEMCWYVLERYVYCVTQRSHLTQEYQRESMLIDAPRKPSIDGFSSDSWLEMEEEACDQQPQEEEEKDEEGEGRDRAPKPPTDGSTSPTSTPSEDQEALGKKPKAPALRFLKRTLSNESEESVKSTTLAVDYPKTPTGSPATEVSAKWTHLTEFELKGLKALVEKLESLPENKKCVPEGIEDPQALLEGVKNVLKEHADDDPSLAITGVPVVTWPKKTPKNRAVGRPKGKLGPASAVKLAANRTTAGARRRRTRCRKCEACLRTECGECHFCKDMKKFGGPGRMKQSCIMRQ
The assay is described as follows: Histone lysine demethylase AlphaLISA assay, KDM2B. The method, boiled down: as §1

[1] abbreviates: AlphaLISA assay, read-out: HDME Inhibition KDM4C (IC50).
The mark [2] stands for this setting: AlphaLISA, in vitro, read-out: HDME Inhibition KDM4C.
The mark [3] stands for this setting: AlphaLISA, in vitro, read-out: HDME Inhibition PHF8.
[4] abbreviates: AlphaLISA, in vitro, read-out: HDME Inhibition KDM2B.
The mark [5] stands for this setting: AlphaLISA assay, read-out: HDME Inhibition KDM5B (IC50).
[6] abbreviates: AlphaLISA, in vitro, read-out: HDME Inhibition KDM5B.
[7] abbreviates: AlphaLISA assay, read-out: HDME Inhibition PHF8 (IC50).

As to `Cc1cc(C(=O)O)cc(CNCc2nccn2CC(C)C)n1` [Compound 80, 2-methyl-6-[({[1-(2-methylpropyl)-1H-imidazol-2-yl]methyl}amino)methyl]pyridine-4-carboxylic acid], the IC50 at KDM4C (JMJD2C) (setting [1]) is > 10 µM; at KDM4C (JMJD2C) (setting [2]), > 10 µM; at KDM5B (PLU-1) it was 1.99 µM; at PHF8 (KDM7) (setting [3]) it was 5.3 µM; at KDM2B (FBXL10) (setting [4]) it was 0.683 µM.

For the compound `CC#CCC(c1ccc(F)cc1)n1ccnc1CNCc1cc(C(=O)O)cc(C)n1` (centres unmarked) [Compound 96, 2-{[({1-[1-(4-fluorophenyl)pent-3-yn-1-yl]-1H-imidazol-2-yl}methyl)amino]methyl}-6-methylpyridine-4-carboxylic acid], the IC50 on KDM4C (JMJD2C) (setting [1]) was > 10 µM; on KDM4C (JMJD2C) (setting [2]), > 10 µM; on KDM5B (PLU-1) (setting [5]) it was > 10 µM; at KDM5B (PLU-1) (setting [6]) it was > 10 µM; at PHF8 (KDM7) (setting [3]) it was 1.81 µM; on KDM2B (FBXL10) (setting [4]) it was 0.061 µM.

Regarding `COc1ccc(CC(C)C)c(CNCc2cc(C(=O)O)cc(CO)n2)n1` [Compound 84, 2-(hydroxymethyl)-6-[({[6-methoxy-3-(2-methylpropyl)pyridin-2-yl]methyl}amino)methyl]pyridine-4-carboxylic acid], the IC50 on KDM4C (JMJD2C) (setting [1]) was > 10 µM; on KDM4C (JMJD2C) (setting [2]) it was > 10 µM; at KDM5B (PLU-1) (setting [6]) it was 6.2 µM; at PHF8 (KDM7) (setting [3]), 0.673 µM; at KDM2B (FBXL10) (setting [4]), 0.251 µM.

As to `Cc1cc(C(=O)O)cc(CNCc2ncc(CCC(N)=O)n2Cc2ccc(F)cc2)n1` [Compound 114, 2-[({[5-(2-carbamoylethyl)-1-[(4-fluorophenyl)methyl]-1H-imidazol-2-yl]methyl}amino)methyl]-6-methylpyridine-4-carboxylic acid], the IC50 at KDM4C (JMJD2C) (setting [1]) was > 10 µM; on KDM4C (JMJD2C) (setting [2]) it was > 10 µM; on KDM5B (PLU-1) (setting [5]) it was > 10 µM; on KDM5B (PLU-1) (setting [6]), > 10 µM; at PHF8 (KDM7) (setting [3]) it was 1.14 µM; on KDM2B (FBXL10) (setting [4]) it was 0.317 µM.

In the case of `Cc1cc(C(=O)O)cc(CNCc2nnc(CN(C)C)n2Cc2ccc(F)cc2)n1` [Compound 44, 2-{[({5-[(dimethylamino)methyl]-4-[(4-fluorophenyl)methyl]-4H-1,2,4-triazol-3-yl}methyl)amino]methyl}-6-methylpyridine-4-carboxylic acid], the IC50 at KDM4C (JMJD2C) (setting [1]) is > 10 µM; at KDM4C (JMJD2C) (setting [2]), > 10 µM; on KDM5B (PLU-1) (setting [5]), > 10 µM; on KDM5B (PLU-1) (setting [6]), > 10 µM; on PHF8 (KDM7) (setting [3]), 2.38 µM; on KDM2B (FBXL10) (setting [4]), 2.01 µM.

Regarding `Cc1cc(C(=O)O)cc(CNCc2nncn2C/C=C/c2ccccc2)n1` [Compound 67, 2-methyl-6-{[({4-[(2E)-3-phenylprop-2-en-1-yl]-4H-1,2,4-triazol-3-yl}methyl)amino]methyl}pyridine-4-carboxylic acid], the IC50 is > 10 µM on KDM4C (JMJD2C) (setting [1]); > 10 µM at KDM4C (JMJD2C) (setting [2]); > 10 µM at KDM5B (PLU-1) (setting [5]); > 10 µM on KDM5B (PLU-1) (setting [6]); 0.791 µM at PHF8 (KDM7) (setting [3]); 0.715 µM at KDM2B (FBXL10) (setting [4]).

With `CCc1nnc(CNCc2cc(C(=O)O)cc(C)n2)n1CCCc1ccccc1` [Compound 90, 2-[({[5-ethyl-4-(3-phenylpropyl)-4H-1,2,4-triazol-3-yl]methyl}amino)methyl]-6-methylpyridine-4-carboxylic acid], the IC50 at KDM4C (JMJD2C) (setting [1]) was > 10 µM; at KDM4C (JMJD2C) (setting [2]) it was > 10 µM; at KDM5B (PLU-1) (setting [5]) it was > 10 µM; on KDM5B (PLU-1) (setting [6]), > 10 µM; on PHF8 (KDM7) (setting [3]), 6.97 µM; at KDM2B (FBXL10) (setting [4]), 2.94 µM.

As for `Cc1cc(C(=O)O)cc(CNCc2ncc(CN(C)C)n2Cc2ccc(F)cc2)n1` [Compound 50, 2-{[({5-[(dimethylamino)methyl]-1-[(4-fluorophenyl)methyl]-1H-imidazol-2-yl}methyl)amino]methyl}-6-methylpyridine-4-carboxylic acid], the IC50 is > 10 µM on KDM4C (JMJD2C) (setting [1]); > 10 µM at KDM4C (JMJD2C) (setting [2]); > 10 µM on KDM5B (PLU-1) (setting [5]); > 10 µM on KDM5B (PLU-1) (setting [6]); 1.04 µM on PHF8 (KDM7) (setting [3]); 0.692 µM at KDM2B (FBXL10) (setting [4]).

For the compound `CCc1nnc(CNCc2cc(C(=O)O)cc(CO)n2)n1CCCc1ccccc1` [Compound 69, 2-[({[5-ethyl-4-(3-phenylpropyl)-4H-1,2,4-triazol-3-yl]methyl}amino)methyl]-6-(hydroxymethyl)pyridine-4-carboxylic acid], the IC50 was > 10 µM at KDM4C (JMJD2C) (setting [1]); > 10 µM on KDM4C (JMJD2C) (setting [2]); > 10 µM at KDM5B (PLU-1) (setting [5]); > 10 µM at KDM5B (PLU-1) (setting [6]); 0.662 µM at PHF8 (KDM7) (setting [3]); 0.027 µM at KDM2B (FBXL10) (setting [4]).

With `Cc1cc(C(=O)O)cc(CNCc2nccn2Cc2cccc(CN)c2)n1` [Compound 48, 2-({[(1-{[3-(aminomethyl)phenyl]methyl}-1H-imidazol-2-yl)methyl]amino}methyl)-6-methylpyridine-4-carboxylic acid], the IC50 at KDM4C (JMJD2C) (setting [1]), at KDM4C (JMJD2C) (setting [2]), at KDM5B (PLU-1) (setting [5]), at KDM5B (PLU-1) (setting [6]), on PHF8 (KDM7) (setting [7]) and at PHF8 (KDM7) (setting [3]) was > 10 µM throughout. Moreover, the IC50 was > 10 µM at KDM2B (FBXL10) (AlphaLISA assay, read-out: HDME Inhibition KDM2B (IC50)) and > 10 µM on KDM2B (FBXL10) (setting [4]).

As to `Cc1cc(OCc2ccccc2)c(CCNCc2cc(C(=O)O)cc(CO)n2)nn1` [Compound 87, 2-[({2-[4-(benzyloxy)-6-methylpyridazin-3-yl]ethyl}amino)methyl]-6-(hydroxymethyl)pyridine-4-carboxylic acid], the IC50 is > 10 µM at KDM4C (JMJD2C) (setting [1]); > 10 µM at KDM4C (JMJD2C) (setting [2]); > 10 µM at KDM5B (PLU-1) (setting [5]); > 10 µM at KDM5B (PLU-1) (setting [6]); 2.3 µM on PHF8 (KDM7) (setting [3]); 1.7 µM on KDM2B (FBXL10) (setting [4]).

For `CCc1nnc(CNCc2cc(C(=O)O)cc(CO)n2)n1Cc1ccc(F)cc1` [Compound 64, 2-{[({5-ethyl-4-[(4-Fluorophenyl)methyl]-4H-1,2,4-triazol-3-yl}methyl)amino]methyl}-6-(hydroxymethyl)pyridine-4-carboxylic acid], the IC50 at KDM4C (JMJD2C) (setting [1]) was > 10 µM; at KDM4C (JMJD2C) (setting [2]), > 10 µM; on KDM5B (PLU-1) (setting [5]), > 10 µM; at KDM5B (PLU-1) (setting [6]), > 10 µM; at PHF8 (KDM7) (setting [3]), 0.246 µM; at KDM2B (FBXL10) (setting [4]) it was 0.104 µM.

`CCN(CCN(C)C)C(=O)CNCc1cc(C(=O)O)cc(CO)n1` [Compound 102, 2-{[({[2-(dimethylamino)ethyl](ethyl)carbamoyl}methyl)amino]methyl}-6-(hydroxymethyl)pyridine-4-carboxylic acid]: the IC50 on KDM4C (JMJD2C) (setting [2]) is 7.05 µM; at KDM5B (PLU-1) (setting [6]), 0.02 µM; at PHF8 (KDM7) (setting [7]), > 10 µM; at PHF8 (KDM7) (setting [3]) it was > 10 µM; on KDM2B (FBXL10) (setting [4]), 0.24 µM.
